“And” between values parts separate entries of the source, which are not always exact repeats. Equal values may be shown once. Read-outs that look alike come from different tables or passages of the source.
Key:
Type in all cases: biochemical
human CSNK1D = human CSNK1D (Homo sapiens (Human), UniProt P48730); assay: CSNK1D Assay (ADP-Glo, 1 μM ATP); details: read-out: CSNK1D IC50 [mol/l] (median)
Method in brief: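 GST-tagged full-length human CSNK1D from baculovirus-infected insect cells, typically ~0.5 ng/μL, with biotinylated peptide substrate and 1 μM ATP in HEPES pH 7.5 buffer. Compound is preincubated with enzyme 15 min at 22 °C. ADP formed is quantified by ADP-Glo luminescence.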

human CSNK1A1 = human CSNK1A1 (Homo sapiens (Human), UniProt P48729); assay: CSNK1A1 Assay 2 (ADP-Glo, 1 μM ATP); details: substrate biotin-Ahx-KRRRAL-pS-VASLPGL, read-out: CSNK1A1 Assay 2 IC50 [mol/l] (median)
Method in brief: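 Full-length human CSNK1A1 as an N-terminal GST fusion (baculovirus/insect cells) with biotinylated peptide substrate biotin-Ahx-KRRRAL-pS-VASLPGL and 1 μM ATP, in HEPES pH 7.5 buffer. Compounds were pre-incubated with enzyme (~0.0375 ng/μL) for 15 min at 22 °C. Generated ADP was read by ADP-Glo luminescence as the activity measure.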

[1] = target: wild-type Epidermal Growth Factor Receptor (EGFR) (Homo sapiens (Human), UniProt P00533); assay: WT-EGFR Kinase Assay (TR-FRET, 2 mM ATP)
[2] = EGFR Wildtyp- 2 mM ATP IC50 [mol/l] (median)
[3] = read-out: EGFR Wildtyp- 2 mM ATP IC50 [mol/l] (median)

Sequence of human CSNK1A1 (P48729 whole entry, the tested form may be a part): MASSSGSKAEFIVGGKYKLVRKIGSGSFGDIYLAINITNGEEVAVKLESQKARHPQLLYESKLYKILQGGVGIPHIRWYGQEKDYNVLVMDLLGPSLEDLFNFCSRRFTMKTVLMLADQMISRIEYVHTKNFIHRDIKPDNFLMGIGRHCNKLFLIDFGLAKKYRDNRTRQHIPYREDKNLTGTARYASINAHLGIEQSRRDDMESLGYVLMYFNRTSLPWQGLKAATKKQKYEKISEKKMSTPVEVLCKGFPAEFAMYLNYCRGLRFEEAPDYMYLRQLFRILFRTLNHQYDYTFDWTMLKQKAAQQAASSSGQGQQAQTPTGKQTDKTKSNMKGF
Sequence of wild-type Epidermal Growth Factor Receptor (EGFR) (P00533 669-1210): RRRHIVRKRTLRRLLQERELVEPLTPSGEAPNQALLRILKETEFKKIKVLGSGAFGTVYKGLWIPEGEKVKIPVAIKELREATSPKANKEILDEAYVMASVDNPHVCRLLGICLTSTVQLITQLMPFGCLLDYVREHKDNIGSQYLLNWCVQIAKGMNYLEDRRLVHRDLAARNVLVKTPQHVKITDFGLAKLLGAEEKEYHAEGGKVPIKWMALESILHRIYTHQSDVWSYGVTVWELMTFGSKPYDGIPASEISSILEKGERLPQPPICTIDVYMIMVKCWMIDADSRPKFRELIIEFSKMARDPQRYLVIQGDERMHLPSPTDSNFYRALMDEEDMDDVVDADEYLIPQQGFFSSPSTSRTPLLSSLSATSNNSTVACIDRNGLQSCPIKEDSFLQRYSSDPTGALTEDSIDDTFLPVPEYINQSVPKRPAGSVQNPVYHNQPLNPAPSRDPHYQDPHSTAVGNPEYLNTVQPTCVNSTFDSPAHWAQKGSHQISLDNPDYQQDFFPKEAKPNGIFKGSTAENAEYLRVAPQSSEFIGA
Sequence of human CSNK1D (P48730 whole entry): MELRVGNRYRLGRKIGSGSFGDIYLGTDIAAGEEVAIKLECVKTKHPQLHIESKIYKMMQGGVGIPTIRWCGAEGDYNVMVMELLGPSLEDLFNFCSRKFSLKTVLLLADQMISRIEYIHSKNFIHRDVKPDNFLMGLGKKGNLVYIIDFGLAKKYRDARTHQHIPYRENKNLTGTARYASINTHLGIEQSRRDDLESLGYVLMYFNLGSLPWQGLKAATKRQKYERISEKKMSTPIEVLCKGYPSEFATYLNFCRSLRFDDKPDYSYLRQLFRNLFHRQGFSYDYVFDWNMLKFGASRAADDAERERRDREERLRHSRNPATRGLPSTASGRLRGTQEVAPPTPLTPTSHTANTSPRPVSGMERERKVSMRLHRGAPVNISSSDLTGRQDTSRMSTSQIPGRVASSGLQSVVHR

C[C@@H](C(=O)Nc1cc(-c2[nH]c3c(c2Nc2ccccc2)C(=O)N(C)CC3)ccn1)c1ccc(F)cc1 (single isomer, unassigned) [Example 6]
IC50 (human CSNK1D): 0.0496 µM | IC50 (human CSNK1A1): 0.044 µM | IC50 [1, 2]: 16.1 µM and 15.6 µM and 18.2 µM and > 20 µM (2×) and 15.9 µM and 17.1 µM

CC(C(=O)Nc1cc(-c2[nH]c3c(c2Nc2ccccc2)C(=O)N(C)CC3)ccn1)c1ccc(F)cc1 (stereo not drawn) [Example 4, N-[4-(3-anilino-5-methyl-4-oxo-4,5,6,7-tetrahydro-1H-pyrrolo[3,2-c]pyridin-2-yl)pyridin-2-yl]-2-(4-fluorophenyl)propanamide]
IC50 (human CSNK1D): 0.0151 µM | IC50 (human CSNK1A1): 0.00549 µM | IC50 [1, 2]: 12.6 µM and 11.2 µM | IC50 [1, 3]: > 20 µM

C[C@H](C(=O)Nc1cc(-c2[nH]c3c(c2Nc2ccccc2)C(=O)N(C)CC3)ccn1)c1ccc(F)cc1 (single isomer, unassigned) [Example 5]
IC50 (human CSNK1D): 0.0121 µM | IC50 (human CSNK1A1): 0.00445 µM

CN1CCc2[nH]c(-c3ccnc(NC(=O)Cc4ccc(F)cc4)c3)c(Nc3ccccc3)c2C1=O [Example 1, N-[4-(3-anilino-5-methyl-4-oxo-4,5,6,7-tetrahydro-1H-pyrrolo[3,2-c]pyridin-2-yl)pyridin-2-yl]-2-(4-fluorophenyl)acetamide]
IC50 (human CSNK1D): 0.00564 µM | IC50 (human CSNK1A1): 0.00197 µM | IC50 [1, 3]: 1.2 µM
